Results reported in PubChem BioAssay AID330 (DTP/NCI, 2004).
Where “and” joins values, the source holds several entries; their conditions need not be identical. Identical values can stand only once. Toxic doses and inconclusive results are not listed. The calls were made as follows: active = survival T/C of 150% or more; inactive = T/C below 125% in these data.

Tested on: P388 leukemia ip, CD2F1 mice, survival T/C
Experiment: NCI In Vivo Anticancer Drug Screen. Data for tumor model P388 Leukemia (intraperitoneal) in CD2F1 (CDF1) mice
Settings: endpoint: median survival time, higher = longer survival
In short: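 Mice carrying the transplanted tumor received test compound or vehicle. Survival was recorded in each group, and the value is the treated-group measurement divided by that of the vehicle-treated control group.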

[1] = dose: 50.0 mg/kg/injection, schedule: Q01DX009 (ip), vehicle: saline
[2] = dose: 100.0 mg/kg/injection, schedule: Q01DX009 (ip), vehicle: saline
[3] = dose: 200.0 mg/kg/injection, schedule: Q01DX009 (ip), vehicle: saline
[4] = dose: 50.0 mg/kg/injection, schedule: Q01DX005 (ip), vehicle: saline with Tween-80
[5] = dose: 60.0 mg/kg/injection, schedule: Q01DX005 (ip), vehicle: saline with Tween-80
[6] = dose: 120.0 mg/kg/injection, schedule: Q01DX005 (ip), vehicle: saline with Tween-80
[7] = dose: 25.0 mg/kg/injection, schedule: Q01DX009 (ip), vehicle: saline with Tween-80
[8] = dose: 50.0 mg/kg/injection, schedule: Q01DX009 (ip), vehicle: saline with Tween-80
[9] = dose: 100.0 mg/kg/injection, schedule: Q01DX009 (ip), vehicle: saline with Tween-80
[10] = dose: 200.0 mg/kg/injection, schedule: Q01DX009 (ip), vehicle: saline with Tween-80
[11] = dose: 25.0 mg/kg/injection, schedule: Q01DX005 (ip), vehicle: saline
[12] = dose: 50.0 mg/kg/injection, schedule: Q01DX005 (ip), vehicle: saline
[13] = dose: 100.0 mg/kg/injection, schedule: Q01DX005 (ip), vehicle: saline
[14] = dose: 25.0 mg/kg/injection, schedule: Q01DX005 (ip), vehicle: Klucel (hydroxypropylcellulose) (HPC)
[15] = dose: 100.0 mg/kg/injection, schedule: Q04DX003 (ip), vehicle: saline with Tween-80
[16] = dose: 200.0 mg/kg/injection, schedule: Q04DX003 (ip), vehicle: saline with Tween-80

Measured: T/C

O=C1CC(c2ccc(Cl)cc2)OC(c2ccc(Cl)cc2)C1 (centres undefined)
inactive: [1] 104 % of control | [2] 102 % of control | [3] 98 % of control

COc1c2occc2c(CN)c2ccc(=O)oc12
inactive: dose: 7.5 mg/kg/injection, schedule: Q01DX005 (ip), vehicle: saline 98 % of control | dose: 15.0 mg/kg/injection, schedule: Q01DX005 (ip), vehicle: saline 99 % of control | dose: 30.0 mg/kg/injection, schedule: Q01DX005 (ip), vehicle: saline 97 % of control

O=C(Nc1ccccc1)c1c(O)[nH]c(=S)[nH]c1=O
inactive: dose: 3.13 mg/kg/injection, schedule: Q01DX005 (ip), vehicle: saline with Tween-80 110 % of control | dose: 6.25 mg/kg/injection, schedule: Q01DX005 (ip), vehicle: saline with Tween-80 116 % of control | dose: 12.5 mg/kg/injection, schedule: Q01DX005 (ip), vehicle: saline with Tween-80 120 % of control
active: [4] 162 % of control and 201 % of control | dose: 75.0 mg/kg/injection, schedule: Q01DX009 (ip), vehicle: saline with Tween-80 210 % of control and 237 % of control and 240 % of control | dose: 175.0 mg/kg/injection, schedule: Q01DX009 (ip), vehicle: saline with Tween-80 283 % of control

NC1C=NNC1=O (centres undefined)
inactive: [5] 110 % of control | [6] 116 % of control | dose: 240.0 mg/kg/injection, schedule: Q01DX005 (ip), vehicle: saline with Tween-80 116 % of control

COc1ccc2c(c1)C(C)(C#N)N(C)C(=O)C2=O (centres undefined)
inactive: dose: 100.0 mg/kg/injection, schedule: Q01DX001 (ip), vehicle: saline with Tween-80 100 % of control | dose: 200.0 mg/kg/injection, schedule: Q01DX001 (ip), vehicle: saline with Tween-80 101 % of control | dose: 400.0 mg/kg/injection, schedule: Q01DX001 (ip), vehicle: saline with Tween-80 96 % of control

C[n+]1ccc(/C=C/c2ccccc2)cc1
inactive: [7] 95 % of control | [8] 90 % of control | [9] 95 % of control | [10] 97 % of control

COc1ccc2c3c(c4ccccc4c2c1)C(=O)OC3=O
inactive: dose: 25.0 mg/kg/injection, schedule: Q01DX005 (ip), vehicle: saline with Tween-80 87 % of control | [4] 87 % of control | dose: 100.0 mg/kg/injection, schedule: Q01DX005 (ip), vehicle: saline with Tween-80 109 % of control

FC(F)(F)COP1(OCC(F)(F)F)(OCC(F)(F)F)SC(C(F)(F)F)=C(C(F)(F)F)S1
inactive: dose: 50.0 mg/kg/injection, schedule: Q04DX002 (ip), vehicle: saline 102 % of control and 103 % of control | dose: 100.0 mg/kg/injection, schedule: Q04DX002 (ip), vehicle: saline 99 % of control and 100 % of control (2×) | dose: 200.0 mg/kg/injection, schedule: Q04DX002 (ip), vehicle: saline 100 % of control and 107 % of control | dose: 400.0 mg/kg/injection, schedule: Q04DX002 (ip), vehicle: saline 102 % of control and 107 % of control

COc1ccc2c3c1OC1C(OC)(OC)C=CC4(F)[C@@H](C2)N(C)CC[C@]314 (some centres undefined)
inactive: dose: 100.0 mg/kg/injection, schedule: Q01DX001 (ip), vehicle: Klucel (hydroxypropylcellulose) (HPC) 105 % of control | dose: 200.0 mg/kg/injection, schedule: Q01DX001 (ip), vehicle: Klucel (hydroxypropylcellulose) (HPC) 100 % of control | dose: 400.0 mg/kg/injection, schedule: Q01DX001 (ip), vehicle: Klucel (hydroxypropylcellulose) (HPC) 96 % of control

CC1=Nc2nc(=N)nc3cccc(n23)N1
inactive: [5] 95 % of control | [6] 104 % of control

O=C1OC(=O)C2CC3OC3CC12 (centres undefined)
inactive: dose: 12.5 mg/kg/injection, schedule: Q01DX001 (ip), vehicle: saline 104 % of control | dose: 25.0 mg/kg/injection, schedule: Q01DX001 (ip), vehicle: saline 109 % of control | dose: 50.0 mg/kg/injection, schedule: Q01DX001 (ip), vehicle: saline 100 % of control

CC1(C)NC(=O)C2(CC(O)C(O)C(OC(=O)c3ccccc3)C2)O1 (centres undefined)
inactive: [11] 102 % of control | [12] 94 % of control | [13] 99 % of control

Nc1nnc2cc(Br)ccc2n1
inactive: dose: 50.0 mg/kg/injection, schedule: Q01DX009 (ip), vehicle: Klucel (hydroxypropylcellulose) (HPC) 102 % of control | dose: 100.0 mg/kg/injection, schedule: Q01DX009 (ip), vehicle: Klucel (hydroxypropylcellulose) (HPC) 99 % of control | dose: 200.0 mg/kg/injection, schedule: Q01DX009 (ip), vehicle: Klucel (hydroxypropylcellulose) (HPC) 100 % of control

Cn1ccc(C#N)c(C#N)c1=O
inactive: [14] 97 % of control | dose: 50.0 mg/kg/injection, schedule: Q01DX005 (ip), vehicle: Klucel (hydroxypropylcellulose) (HPC) 99 % of control | dose: 100.0 mg/kg/injection, schedule: Q01DX005 (ip), vehicle: Klucel (hydroxypropylcellulose) (HPC) 106 % of control | dose: 200.0 mg/kg/injection, schedule: Q01DX005 (ip), vehicle: Klucel (hydroxypropylcellulose) (HPC) 97 % of control

NC(Cc1ccc(O)c(N=Nc2ccc([N+](=O)[O-])cc2)c1)C(=O)O (centres undefined)
inactive: dose: 100.0 mg/kg/injection, schedule: Q01DX001 (ip), vehicle: saline 103 % of control | dose: 200.0 mg/kg/injection, schedule: Q01DX001 (ip), vehicle: saline 100 % of control | dose: 400.0 mg/kg/injection, schedule: Q01DX001 (ip), vehicle: saline 100 % of control

C=C(CC)C(=O)OCC
inactive: [1] 95 % of control | [2] 102 % of control | [3] 104 % of control

COC1/C=C/OC2(C)Oc3c(C)c(O)c4c(O)c(c(/C=N/N5C(C)CN(Cc6ccccc6C#N)CC5C)c(O)c4c3C2=O)NC(=O)/C(C)=C\C=C\C(C)C(O)C(C)C(O)C(C)C(OC(C)=O)C1C (centres undefined)
inactive: dose: 12.5 mg/kg/injection, schedule: Q01DX009 (ip), vehicle: saline with Tween-80 111 % of control | [7] 118 % of control | [8] 109 % of control | [9] 107 % of control and 108 % of control

CCCC(=O)OCc1cc(=O)n(C)c2c3c4c(cc12)c(C)cc(=O)n4CO3
active: dose: 12.5 mg/kg/injection, schedule: Q01DX009 (ip), vehicle: other 157 % of control | dose: 25.0 mg/kg/injection, schedule: Q01DX009 (ip), vehicle: other 151 % of control and 171 % of control | dose: 50.0 mg/kg/injection, schedule: Q01DX009 (ip), vehicle: other 163 % of control

Cc1ccc(NCCN(C)C)c2c(=O)c3c(O)cccc3sc12
active: dose: 50.0 mg/kg/injection, schedule: Q01DX009 (ip), vehicle: suspension in saline 166 % of control

Cc1ncn2cnnc2c1C
inactive: [15] 89 % of control | [16] 95 % of control

O=c1cc(-c2ccc3ccccc3n2)oc2ccc(Cl)cc12
inactive: dose: 10.0 mg/kg/injection, schedule: Q01DX009 (ip), vehicle: saline 107 % of control | dose: 20.0 mg/kg/injection, schedule: Q01DX009 (ip), vehicle: saline 93 % of control | dose: 40.0 mg/kg/injection, schedule: Q01DX009 (ip), vehicle: saline 89 % of control

CC1=CC(C)C[N+](C)(C)C1 (centres undefined)
inactive: dose: 3.12 mg/kg/injection, schedule: Q01DX005 (ip), vehicle: saline 104 % of control | dose: 6.25 mg/kg/injection, schedule: Q01DX005 (ip), vehicle: saline 103 % of control | dose: 12.5 mg/kg/injection, schedule: Q01DX005 (ip), vehicle: saline 100 % of control | [11] 94 % of control

Cc1nc2[nH]cc(-c3ccccc3)c2c(=N)n1-c1ccc(F)cc1
inactive: dose: 6.25 mg/kg/injection, schedule: Q01DX005 (ip), vehicle: Klucel (hydroxypropylcellulose) (HPC) 101 % of control | dose: 12.5 mg/kg/injection, schedule: Q01DX005 (ip), vehicle: Klucel (hydroxypropylcellulose) (HPC) 101 % of control | [14] 102 % of control

O=NN(CCCl)C(=O)Nc1ccc(Br)cn1
inactive: dose: 50.0 mg/kg/injection, schedule: Q04DX003 (ip), vehicle: saline with Tween-80 100 % of control | [15] 100 % of control | [16] 118 % of control
active: [9] 150 % of control | [10] 150 % of control

NC1=NCCCN1
inactive: dose: 3.0 mg/kg/injection, schedule: Q01DX009 (ip), vehicle: saline 95 % of control | dose: 6.0 mg/kg/injection, schedule: Q01DX009 (ip), vehicle: saline 104 % of control | dose: 12.0 mg/kg/injection, schedule: Q01DX009 (ip), vehicle: saline 90 % of control

O=NN(CC(=O)O)CC1(O)OCC(O)C(O)C1O (centres undefined)
inactive: [12] 94 % of control | [13] 105 % of control | dose: 200.0 mg/kg/injection, schedule: Q01DX005 (ip), vehicle: saline 103 % of control
